The values that follow come from patent US12252524B2, “GIP/GLP1 co-agonist compounds” (Eli Lilly and Company, priority 2018, dated 2025).

In general, Ki refers to the dissociation constant of the complex between target and ligand, obtained from inhibition or displacement. The term EC50 denotes the concentration that produces a half-maximal response.

For one assay, the target named is T1, human Gcg receptor (Homo sapiens, UniProt P47871).
T1 construct: expressed in transfected cells; crude membranes
T1 sequence (P47871 26-477): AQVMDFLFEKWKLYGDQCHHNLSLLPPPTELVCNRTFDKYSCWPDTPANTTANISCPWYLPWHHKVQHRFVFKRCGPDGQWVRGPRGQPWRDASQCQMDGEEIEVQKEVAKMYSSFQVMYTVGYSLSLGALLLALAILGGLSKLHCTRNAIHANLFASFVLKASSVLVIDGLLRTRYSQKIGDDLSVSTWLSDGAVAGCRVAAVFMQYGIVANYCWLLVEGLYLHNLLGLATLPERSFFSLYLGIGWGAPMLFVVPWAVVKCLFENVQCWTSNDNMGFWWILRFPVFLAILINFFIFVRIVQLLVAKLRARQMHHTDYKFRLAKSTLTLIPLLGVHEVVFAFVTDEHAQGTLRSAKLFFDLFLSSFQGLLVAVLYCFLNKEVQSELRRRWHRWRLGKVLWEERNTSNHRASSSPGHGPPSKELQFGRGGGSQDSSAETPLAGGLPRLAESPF
Nature of the assay: [125I]-Glucagon binding (SPA), human Gcg receptor. The method, boiled down:
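Crude membranes from cells expressing the receptor, prepared by hypotonic lysis in 50 mM Tris HCl pH 7.5 with protease inhibitors, homogenization and differential centrifugation, were used in a WGA-bead SPA. Binding buffer: 25 mM HEPES pH 7.4, 2.5 mM CaCl2, 1 mM MgCl2, bacitracin, Tween-20.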

For another assay, the target named is T2, human GIP receptor (Homo sapiens, UniProt P48546).
T2 construct: expressed in transfected cells; crude membranes
T2 sequence (P48546 22-466): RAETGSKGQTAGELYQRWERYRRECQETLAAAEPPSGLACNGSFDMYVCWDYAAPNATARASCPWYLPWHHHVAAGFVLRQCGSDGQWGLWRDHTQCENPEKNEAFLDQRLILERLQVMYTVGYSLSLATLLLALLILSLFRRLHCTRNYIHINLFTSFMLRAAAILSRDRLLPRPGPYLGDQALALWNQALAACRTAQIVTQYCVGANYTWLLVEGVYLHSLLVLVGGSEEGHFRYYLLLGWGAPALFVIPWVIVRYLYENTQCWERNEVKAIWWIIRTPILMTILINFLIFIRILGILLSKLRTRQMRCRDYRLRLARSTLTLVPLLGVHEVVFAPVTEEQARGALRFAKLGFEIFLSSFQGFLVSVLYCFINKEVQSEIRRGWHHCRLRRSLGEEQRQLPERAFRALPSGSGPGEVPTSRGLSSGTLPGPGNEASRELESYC
Nature of the assay: [125I]-GIP binding (SPA), human GIP receptor.

Assay [1] has as its target human GLP-1 receptor (GLP-1R) (Homo sapiens, UniProt P43220). Nature of the assay: cAMP pharmacological functional assay in presence of casein, hGLP-1R. In kind it is cell-based.
In assay [2] the target is T3, gastric inhibitory peptide receptor (GIPR) (Homo sapiens, UniProt P48546).
T3 sequence (P48546 22-466): T2 sequence (P48546 22-466)
Nature of the assay: cAMP pharmacological functional assay in presence of casein, hGIPR. The class given is cell-based.

Assay [3] concerns the target T4, human GLP-1R (Homo sapiens, UniProt P43220). Nature of the assay: [125I]-GLP-1 binding (SPA), human GLP-1 receptor. Further details: expressed in transfected cells; crude membranes. The method, boiled down:
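Ki values are geometric means with SEM over independent replicates on different days, derived from IC50s fitted by four-parameter nonlinear regression. The assay used crude cell membranes in HEPES buffer, pH 7.4, containing CaCl2, MgCl2, bacitracin and TWEEN-20.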

Assay [4] has as its target T4, human GLP-1R. Nature of the assay: GLP-1R CHO cell β-arrestin recruitment assay. In kind it is cell-based. Further details: host or cells: CHO-K1 PathHunter cells, assay-ready frozen. The following applies: for hGLP1R B-Arrestin2 % Top: normalized to GLP-1 maximum control. In outline: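 Peptide-induced β-arrestin-2 recruitment measured by enzyme-fragment complementation luminescence after 90 min at 37 °C plus 60 min detection at RT.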
A general note: Activated receptors often draw arrestin, which recruitment assays turn into a signal.

Assay [5] has as its target T4, human GLP-1R. Nature of the assay: GLP-1R HEK293 cell membrane [35S]GTPγS binding assay. In kind it is biochemical. Details: expressed in transfected cells; host or cells: HEK293 cells expressing human GLP-1R; membranes. The method, boiled down:
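Agonist-driven Gαs activation read as [35S]GTPγS ([…]) binding to receptor-expressing HEK293 membranes, 30 min at room temperature, pH 7.4. Detection by anti-Gαs immunocapture on scintillation beads; EC50 derived from four-parameter logistic concentration-response fit.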

Where [6] appears, read: read-out: hGLcgR Ki, nM (SEM, n).
[7] abbreviates: read-out: hGIPR Ki, nM (SEM, n).
The mark [8] stands for this setting: HEK293 cells expressing hGLP-1R, 0.1% Casein, geometric mean, read-out: hGLP1R cAMP Rel EC50 nM (SEM, n).
The mark [9] stands for this setting: HEK293 cells expressing hGIPR, 0.1% Casein, geometric mean, read-out: hGIPR cAMP Rel EC50 nM (SEM, n).
Where [10] appears, read: read-out: hGLP1R Ki, (nM) (SEM, n).
Where [11] appears, read: CHO-K1 cells, PathHunter β-arrestin-2 recruitment, 0.1% casein, read-out: hGLP1R B-Arrestin2 Rel EC50 uM (SEM, n).
Setting [12] is: HEK293 cell membranes expressing human GLP-1R, [35S]GTPγS binding, read-out: hGLP1R GTPgS Rel EC50 nM (SEM, n).

SMILES strings stand for the structures. Read-outs that look alike come from different tables or passages of the source. Numbered stars: 1 amine (or outer) side, 2 acyl side, 3 side chain; on linkers, the order of the positions; unused ones are H or OH. Square brackets hold non-standard residues; d marks the D form. Side chains are listed from the residue outwards. Peptide text beside a SMILES is read from it. * marks the point of attachment. C20 diacid = O=C(O)CCCCCCCCCCCCCCCCCCC(=O)*; γGlu = O=C(O)[C@H](CCC(=O)[*:2])N[*:1]; αMeL = CC(C)C[C@](C)(N)C(=O)O; AEEA = NCCOCCOCC(=O)O; Aib = CC(C)(N)C(=O)O

human GLP-1 receptor (GLP-1R), sequence (P43220 24-463): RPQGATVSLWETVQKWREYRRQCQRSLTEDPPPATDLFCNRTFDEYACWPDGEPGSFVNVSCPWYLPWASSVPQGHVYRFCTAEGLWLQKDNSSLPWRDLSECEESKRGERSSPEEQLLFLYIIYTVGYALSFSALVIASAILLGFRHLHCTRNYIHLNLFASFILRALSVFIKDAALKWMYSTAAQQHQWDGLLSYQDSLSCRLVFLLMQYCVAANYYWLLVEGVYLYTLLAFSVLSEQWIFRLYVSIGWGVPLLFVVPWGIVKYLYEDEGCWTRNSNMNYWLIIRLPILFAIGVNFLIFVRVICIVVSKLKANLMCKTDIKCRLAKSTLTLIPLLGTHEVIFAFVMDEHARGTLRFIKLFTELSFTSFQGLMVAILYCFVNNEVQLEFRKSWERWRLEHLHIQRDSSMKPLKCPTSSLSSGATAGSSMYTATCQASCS
T4 sequence (P43220 24-463): as above

Turning to `CC[C@H](C)[C@H](NC(=O)[C@H](CC(C)C)NC(=O)[C@H](Cc1ccc(O)cc1)NC(=O)[C@H](CCC(=O)O)NC(=O)[C@@H](NC(=O)[C@H](Cc1ccccc1)NC(=O)[C@H](C)NC(=O)C(C)(C)NC(=O)[C@H](CCC(N)=O)NC(=O)[C@H](C)NC(=O)[C@H](CCCCNC(=O)COCCOCCNC(=O)COCCOCCNC(=O)CC[C@H](NC(=O)CCCCCCCCCCCCCCCCCCC(=O)O)C(=O)O)NC(=O)[C@H](CCC(=O)O)NC(=O)[C@H](CC(=O)O)NC(=O)[C@H](CC(C)C)NC(=O)[C@](C)(CC(C)C)NC(=O)[C@@H](NC(=O)[C@H](CO)NC(=O)[C@H](Cc1ccc(O)cc1)NC(=O)[C@H](CC(=O)O)NC(=O)[C@H](CO)NC(=O)[C@@H](NC(=O)[C@H](Cc1ccccc1)NC(=O)[C@@H](NC(=O)CNC(=O)[C@H](CCC(=O)O)NC(=O)C(C)(C)NC(=O)[C@@H](N)Cc1ccc(O)cc1)[C@@H](C)O)[C@@H](C)O)[C@@H](C)CC)[C@@H](C)CC)C(=O)N[C@@H](C)C(=O)NCC(=O)NCC(=O)N1CCC[C@H]1C(=O)N[C@@H](CO)C(=O)N[C@@H](CO)C(=O)NCC(=O)N[C@@H](C)C(=O)N1CCC[C@H]1C(=O)N1CCC[C@H]1C(=O)N1CCC[C@H]1C(=O)N[C@@H](CO)C(N)=O` [Example 332] (H-Y[Aib]EGTFTSDYSI[αMeL]LDEK([AEEA-AEEA-γGlu-C20 diacid])AQ[Aib]AFIEYLIAGGPSSGAPPPS-NH2), the Ki on human Gcg receptor (setting [6]) stood at 397 nM; on human GIP receptor (setting [7]), 0.0497 nM; at human GLP-1R [3] (setting [10]) it was 7.87 nM. In addition, the EC50 in assay [1] (setting [8]) was 0.184 nM; in assay [2] (setting [9]), 0.0745 nM; on human GLP-1R [4] (setting [11]), 0.0171 µM; on human GLP-1R [5] (setting [12]), 0.453 nM. Also, the “hGLP1R B-Arrestin2 % Top” value at human GLP-1R [4] amounted to 45.6%.

As to `CC[C@H](C)[C@H](NC(=O)[C@H](CC(C)C)NC(=O)[C@H](Cc1ccc(O)cc1)NC(=O)[C@H](CCC(=O)O)NC(=O)[C@@H](NC(=O)[C@H](Cc1ccccc1)NC(=O)[C@H](CCC(=O)O)NC(=O)C(C)(C)NC(=O)[C@H](CCC(N)=O)NC(=O)[C@H](C)NC(=O)[C@H](CCCCNC(=O)COCCOCCNC(=O)COCCOCCNC(=O)CC[C@H](NC(=O)CCCCCCCCCCCCCCCCCCC(=O)O)C(=O)O)NC(=O)[C@H](CCCCN)NC(=O)[C@H](CC(=O)O)NC(=O)[C@H](CC(C)C)NC(=O)[C@](C)(CC(C)C)NC(=O)[C@@H](NC(=O)[C@H](CO)NC(=O)[C@H](Cc1ccc(O)cc1)NC(=O)[C@H](CC(=O)O)NC(=O)[C@H](CO)NC(=O)[C@@H](NC(=O)[C@H](Cc1ccccc1)NC(=O)[C@@H](NC(=O)CNC(=O)[C@H](CCC(=O)O)NC(=O)C(C)(C)NC(=O)[C@@H](N)Cc1ccc(O)cc1)[C@@H](C)O)[C@@H](C)O)[C@@H](C)CC)[C@@H](C)CC)C(=O)N[C@@H](CCC(=O)O)C(=O)NCC(=O)NCC(=O)N1CCC[C@H]1C(=O)N[C@@H](CO)C(=O)N[C@@H](CO)C(=O)NCC(=O)N[C@@H](C)C(=O)N1CCC[C@H]1C(=O)N1CCC[C@H]1C(=O)N1CCC[C@H]1C(=O)N[C@@H](CO)C(N)=O` [Example 333] (H-Y[Aib]EGTFTSDYSI[αMeL]LDKK([AEEA-AEEA-γGlu-C20 diacid])AQ[Aib]EFIEYLIEGGPSSGAPPPS-NH2), the figures for the Ki at human Gcg receptor (setting [6]), on human GIP receptor (setting [7]) and at human GLP-1R [3] (setting [10]) were 578 nM, 0.0634 nM and 4.25 nM, respectively. For the same molecule, the EC50 in assay [1] (setting [8]) turned out to be 0.131 nM; in assay [2] (setting [9]), 0.0492 nM; at human GLP-1R [4] (setting [11]), 0.0548 µM; on human GLP-1R [5] (setting [12]), 0.442 nM. For the same molecule, the “hGLP1R B-Arrestin2 % Top” value on human GLP-1R [4] amounted to 58.2%.

In the case of `CC[C@H](C)[C@H](NC(=O)[C@H](CC(C)C)NC(=O)[C@H](Cc1ccc(O)cc1)NC(=O)[C@H](CCC(=O)O)NC(=O)[C@@H](NC(=O)[C@H](Cc1ccccc1)NC(=O)[C@H](C)NC(=O)C(C)(C)NC(=O)[C@H](CCC(N)=O)NC(=O)[C@H](C)NC(=O)[C@H](CCCCNC(=O)COCCOCCNC(=O)COCCOCCNC(=O)CC[C@H](NC(=O)CCCCCCCCCCCCCCCCCCC(=O)O)C(=O)O)NC(=O)[C@H](CCCCN)NC(=O)[C@H](CC(=O)O)NC(=O)[C@H](CC(C)C)NC(=O)[C@](C)(CC(C)C)NC(=O)[C@@H](NC(=O)[C@H](CO)NC(=O)[C@H](Cc1ccc(O)cc1)NC(=O)[C@H](CC(=O)O)NC(=O)[C@H](CO)NC(=O)[C@@H](NC(=O)[C@H](Cc1ccccc1)NC(=O)[C@@H](NC(=O)CNC(=O)[C@H](CCC(=O)O)NC(=O)C(C)(C)NC(=O)[C@H](N)Cc1ccc(O)cc1)[C@@H](C)O)[C@@H](C)O)[C@@H](C)CC)[C@@H](C)CC)C(=O)N[C@@H](CCC(=O)O)C(=O)NCC(=O)NCC(=O)N1CCC[C@H]1C(=O)N[C@@H](CO)C(=O)N[C@@H](CO)C(=O)NCC(=O)N[C@@H](C)C(=O)N1CCC[C@H]1C(=O)N1CCC[C@H]1C(=O)N1CCC[C@H]1C(=O)N[C@@H](CO)C(N)=O` [Example 334], the Ki at human Gcg receptor (setting [6]) was found to be 192 nM; at human GIP receptor (setting [7]) it was 0.0646 nM; on human GLP-1R [3] (setting [10]), 2.17 nM. For the same molecule, the EC50 in assay [1] (setting [8]) was 0.303 nM; in assay [2] (setting [9]), 0.0718 nM; on human GLP-1R [4] (CHO-K1 cells, 0.1% w/v hydrolyzed Casein, read-out: hGLP1R B-Arrestin2 Rel EC50), more than 10.3 µM; on human GLP-1R [4] (setting [11]), more than 10.3 µM; on human GLP-1R [5] (setting [12]), 0.432 nM.

In the case of `CC[C@H](C)[C@H](NC(=O)[C@H](CC(C)C)NC(=O)[C@H](Cc1ccc(O)cc1)NC(=O)[C@H](CCC(=O)O)NC(=O)[C@@H](NC(=O)[C@H](Cc1ccccc1)NC(=O)[C@H](C)NC(=O)C(C)(C)NC(=O)[C@H](CCC(N)=O)NC(=O)[C@H](C)NC(=O)[C@H](CCCCNC(=O)COCCOCCNC(=O)COCCOCCNC(=O)CC[C@H](NC(=O)CCCCCCCCCCCCCCCCCCC(=O)O)C(=O)O)NC(=O)[C@H](CCCCN)NC(=O)[C@H](CC(=O)O)NC(=O)[C@H](CC(C)C)NC(=O)[C@](C)(CC(C)C)NC(=O)[C@@H](NC(=O)[C@H](CO)NC(=O)[C@H](Cc1ccc(O)cc1)NC(=O)[C@H](CC(=O)O)NC(=O)[C@H](CO)NC(=O)[C@@H](NC(=O)[C@](C)(Cc1ccccc1)NC(=O)[C@@H](NC(=O)CNC(=O)[C@H](CCC(=O)O)NC(=O)C(C)(C)NC(=O)[C@H](N)Cc1ccc(O)cc1)[C@@H](C)O)[C@@H](C)O)[C@@H](C)CC)[C@@H](C)CC)C(=O)N[C@@H](CCC(=O)O)C(=O)NCC(=O)NCC(=O)N1CCC[C@H]1C(=O)N[C@@H](CO)C(=O)N[C@@H](CO)C(=O)NCC(=O)N[C@@H](C)C(=O)N1CCC[C@H]1C(=O)N1CCC[C@H]1C(=O)N1CCC[C@H]1C(=O)N[C@@H](CO)C(N)=O` [Example 335], the Ki on human Gcg receptor was determined as 27.1 nM; on human GIP receptor, 0.0444 nM; at human GLP-1R [3], 2.54 nM. Moreover, the EC50 in assay [1] stood at 0.122 nM; in assay [2] it was 0.0477 nM; on human GLP-1R [4], 0.00531 µM; on human GLP-1R [5], 0.285 nM. Besides, at human GLP-1R [4], the “hGLP1R B-Arrestin2 % Top” value is listed as 73%.
